According to patent publication US20050239656A1, “Pyridine compounds or salts thereof and herbicides containing the same” (priority 2002, published 2005):

Tests used:
barnyardgrass [1] = assay: Test Example 1: foliage treatment, upland pot test; assay type: in vivo, Echinochloa crus-galli L.; conditions: observed 18th to 23rd day, 0 = non-treated, 100 = complete kill
Summary of the method: (§1)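 Foliage tx, upland soil pots; stages: wheat 1.3-2.4 L, rice 1.2-2.6 L, soybean 0.1-0.4 L, barnyardgrass 1.3-2.8 L. WP/EC diluted, 500 L/ha water + 0.1% (v/v) agricultural spreader, small sprayer. Visual rating d18–23, 0–100% control.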

crabgrass [2] = assay: Test Example 1: foliage treatment, upland pot test; assay type: in vivo, Digitaria sanguinalis L.; conditions: observed 18th to 23rd day, 0 = non-treated, 100 = complete kill
green foxtail [3] = assay: Test Example 1: foliage treatment, upland pot test; assay type: in vivo, Setaria viridis L.; conditions: observed 18th to 23rd day, 0 = non-treated, 100 = complete kill
redroot pigweed [4] = assay: Test Example 1: foliage treatment, upland pot test; assay type: in vivo, Amaranthus retroflexus L.; conditions: observed 18th to 23rd day, 0 = non-treated, 100 = complete kill
prickly sida [5] = assay: Test Example 1: foliage treatment, upland pot test; assay type: in vivo, Sida spinosa L.; conditions: observed 18th to 23rd day, 0 = non-treated, 100 = complete kill
velvetleaf [6] = assay: Test Example 1: foliage treatment, upland pot test; assay type: in vivo, Abutilon theophrasti MEDIC.; conditions: observed 18th to 23rd day, 0 = non-treated, 100 = complete kill
rice [7] = assay: Test Example 1: foliage treatment, upland pot test; assay type: in vivo, Oryza sativa L.; conditions: crop, observed 18th to 23rd day, 0 = non-treated, 100 = complete kill
Summary of the method: as §1

wheat = assay: Test Example 1: foliage treatment, upland pot test; assay type: in vivo, Triticum spp.; conditions: crop, observed 18th to 23rd day, 0 = non-treated, 100 = complete kill
Source text: Upland field soil was put into a 1/170,000 ha pot, and seed of various plants were sown. Then, when the plants reached predetermined leaf stages ((1) barnyardgrass: 1.3 to 2.8 leaf stages, (2) crabgrass: 1.0 to 2.8 leaf stages, (3) green foxtail: 1.3 to 2.6 leaf stages, (4) redroot pigweed: 0.1 to 1.2 leaf stages, (5) prickly sida: 0.1 to 1.2 leaf stages, (6) velvetleaf: 0.1 to 1.2 leaf stages, (7) tall morningglory: 0.1 to 1.5 leaf stages, (8) rice: 1.2 to 2.6 leaf stages, (9) wheat: 1.3 to 2.4 leaf stages, (10) corn, 2.1 to 3.2 leaf stages, (11) soybean: 0.1 to 0.4 leaf stage), a wettable powder or emulsifiable concentrate having the compound of the present invention formulated in accordance with a usual formulation method, was weighed so that the active ingredient would be a predetermined amount, and diluted with water in an amount of 500 L/ha. To the diluted solution, 0.1% (v/v) of agricultural spreader was added. The herbicide thus adjusted was applied by a small size sprayer for foliage treatment. On the 18th to 23rd days after the application of the herbicide, the growth of the respective plants was visually observed, and the herbicidal effects were evaluated by the growth controlling degrees (%) ranging from 0 (equivalent to the non-treated plot) to 100 (complete kill), whereby the results shown in Table 3, were obtained.

corn [8] = assay: Test Example 1: foliage treatment, upland pot test; assay type: in vivo, Zea mays L.; conditions: crop, observed 18th to 23rd day, 0 = non-treated, 100 = complete kill
Summary of the method: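 In this upland pot foliage test, corn plants at 2.1 to 3.2 leaf stages were sprayed by a small size sprayer. The spray was a conventionally formulated wettable powder or emulsifiable concentrate weighed to a set active ingredient amount, diluted in water at 500 L/ha, plus 0.1% (v/v) agricultural spreader. Visual assessment on days 18 to 23 gave growth controlling degree (%), where 0 equals untreated and 100 means complete kill.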

soybean [9] = assay: Test Example 1: foliage treatment, upland pot test; assay type: in vivo, Glycine max Merr.; conditions: crop, observed 18th to 23rd day, 0 = non-treated, 100 = complete kill
Summary of the method: as §1

barnyardgrass [10] = assay: Test Example 2: soil surface treatment, upland pot test; assay type: in vivo, Echinochloa crus-galli L.; conditions: active ingredient 500 g/ha, observed 20th to 28th day
Summary of the method: (§2)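 Seeds were sown in upland field soil in 1/170,000 ha pots. One day later, a wettable powder or emulsifiable concentrate at a predetermined active-ingredient rate, diluted in water at 1,500 L/ha, was sprayed onto the soil surface. Growth control (%) was scored visually 20–28 days after application (0 = untreated, 100 = complete kill).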

crabgrass [11] = assay: as above; assay type: in vivo, Digitaria sanguinalis L.; conditions: active ingredient 500 g/ha, observed 20th to 28th day
Summary of the method: as §2

green foxtail [12] = assay: as above; assay type: in vivo, Setaria viridis L.; conditions: active ingredient 500 g/ha, observed 20th to 28th day
Summary of the method: as §2

redroot pigweed [13] = assay: as above; assay type: in vivo, Amaranthus retroflexus L.; conditions: active ingredient 500 g/ha, observed 20th to 28th day
Summary of the method: as §2

prickly sida [14] = assay: as above; assay type: in vivo, Sida spinosa L.; conditions: active ingredient 500 g/ha, observed 20th to 28th day
Summary of the method: as §2

velvetleaf [15] = assay: as above; assay type: in vivo, Abutilon theophrasti MEDIC.; conditions: active ingredient 500 g/ha, observed 20th to 28th day
Summary of the method: as §2

rice [16] = assay: as above; assay type: in vivo, Oryza sativa L.; conditions: active ingredient 500 g/ha, observed 20th to 28th day
Summary of the method: as §2

corn [17] = assay: as above; assay type: in vivo, Zea mays L.; conditions: active ingredient 500 g/ha, observed 20th to 28th day
Summary of the method: as §2

soybean [18] = assay: as above; assay type: in vivo, Glycine max Merr.; conditions: active ingredient 500 g/ha, observed 20th to 28th day
Summary of the method: as §2

barnyardgrass [19] = assay: Test Example 3: paddy pot test, application under submerged conditions; assay type: in vivo, Echinochloa crus-galli L.; conditions: active ingredient 500 g/ha; submerged application at 0.5 leaf stage; visually observed 14 days after application; 0 = non-treated, 100 = complete kill
Summary of the method: (§3)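 Visual rating of growth control (0% equals untreated, 100% complete kill) made 14 days after treatment. Compound, formulated as wettable powder or emulsifiable concentrate and diluted in water, was pipetted under submerged conditions at predetermined active-ingredient doses once weeds reached 0.5-leaf (barnyardgrass, bulrush) or primary-leaf (wapato, from tubers) stage. Pots of greenhouse paddy soil held 3–4 cm flooding.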

japanese bulrush = assay: as above; assay type: in vivo, Scirpus juncoides; conditions: active ingredient 500 g/ha; submerged application at 0.5 leaf stage; visually observed 14 days after application; 0 = non-treated, 100 = complete kill
Summary of the method: as §3

rice (var. Nihonbare) = assay: Test Example 3: paddy pot test, transplanted rice; assay type: in vivo, Oryza sativa L.; conditions: active ingredient 500 g/ha, applied 4th day after transplantation, visually observed 21st day after application, 0 = non-treated, 100 = complete kill
Summary of the method: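 Visual crop-injury rating (0 = as untreated, 100 = complete kill, %) taken 21 days post-application. Treatment: formulated compound, water-diluted, pipetted into 3–4 cm flood water at a preset active-ingredient dose, 4 days after transplanting 2-leaf Nihonbare rice 3 cm deep in puddled paddy soil.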

japanese ribbon wapato = assay: Test Example 3: paddy pot test, application under submerged conditions; assay type: in vivo, Sagittaria pygniaea; conditions: active ingredient 500 g/ha; submerged application at primary leaf stage; visually observed 14 days after application; 0 = non-treated, 100 = complete kill
Summary of the method: as §3

SMILES | Growth controlling degree (%) Barnyardgrass (barnyardgrass [1]; active ingredient 500 g/ha) | Growth controlling degree (%) Crabgrass (crabgrass [2]; active ingredient 500 g/ha) | Growth controlling degree (%) Green foxtail (green foxtail [3]; active ingredient 500 g/ha) | Growth controlling degree (%) Redroot pigweed (redroot pigweed [4]; active ingredient 500 g/ha) | Growth controlling degree (%) Prickly sida (prickly sida [5]; active ingredient 500 g/ha) | Growth controlling degree (%) Velvetleaf (velvetleaf [6]; active ingredient 500 g/ha) | Growth controlling degree (%) Rice (rice [7]; active ingredient 500 g/ha) | Growth controlling degree (%) wheat (wheat; active ingredient 500 g/ha) | Growth controlling degree (%) Corn (corn [8]; active ingredient 500 g/ha) | Growth controlling degree (%) Soybean (soybean [9]; active ingredient 500 g/ha) | Growth controlling degree (%) Barnyardgrass (barnyardgrass [10]) | Growth controlling degree (%) Crabgrass (crabgrass [11]) | Growth controlling degree (%) Green foxtail (green foxtail [12]) | Growth controlling degree (%) Redroot pigweed (redroot pigweed [13]) | Growth controlling degree (%) Prickly sida (prickly sida [14]) | Growth controlling degree (%) Velvetleaf (velvetleaf [15]) | Growth controlling degree (%) Rice (rice [16]) | Growth controlling degree (%) Barnyardgrass (barnyardgrass [19]) | Growth controlling degree (%) Japanese bulrush (japanese bulrush) | Growth controlling degree (%) Rice (rice (var. Nihonbare)) | also measured
CON=Cc1ccc(CC(=O)N(C)C(c2cnccc2C(F)(F)F)C(C)C)cc1 (racemic) [I-122] | 80% | 95% | 60% | 70% | 80% | 70% | 10% | 0% | 80% | 80% | 98% | 100% | 100% | 60% | 50% | 30% | 20% | 98% | 100% | 10% | Growth controlling degree (%) Corn (corn [17]): 10%; Growth controlling degree (%) Soyabean (soybean [18]): 10%
COc1ccc(C=CC(=O)N(C)C(c2cnccc2C(F)(F)F)C(C)C)cc1 (stereo not shown) [I-182] | 80% | 80% | 50% | 50% | 70% | 50% | 20% | 10% | 60% | 70% | 90% | 100% | 95% | 30% | 10% | 50% | 50% | 100% | 98% | 0% | Growth controlling degree (%) Corn (corn [17]): 10%; Growth controlling degree (%) Soyabean (soybean [18]): 10%; Growth controlling degree (%) Japanese ribbon wapato (japanese ribbon wapato): 80%
CC(C)C(c1cnccc1C(F)(F)F)N(C)C(=O)C=Cc1ccc(C(F)(F)F)cc1 (stereo not shown) [I-186] | 50% | 60% | 40% | 50% | 60% | 60% | 10% | 60% | 50% | 70% | 40% | 98% | 100% | 40% | 10% | 0% | 20% | 98% | 95% | 10% | Growth controlling degree (%) Corn (corn [17]): 30%; Growth controlling degree (%) Soyabean (soybean [18]): 0%
CC(C)C(c1cnccc1C(F)(F)F)N(C)C(=O)C=Cc1cccc2ccccc12 (stereo not shown) [I-187] | – | – | – | – | – | – | – | – | – | – | – | – | – | – | – | – | – | 100% | 10% | 0% | Growth controlling degree (%) Barnyardgrass (barnyardgrass [1]; active ingredient 1000 g/ha): 60%; Growth controlling degree (%) Crabgrass (crabgrass [2]; active ingredient 1000 g/ha): 95%; Growth controlling degree (%) Green foxtail (green foxtail [3]; active ingredient 1000 g/ha): 60%; Growth controlling degree (%) Redroot pigweed (redroot pigweed [4]; active ingredient 1000 g/ha): 80%; Growth controlling degree (%) Prickly sida (prickly sida [5]; active ingredient 1000 g/ha): 90%; Growth controlling degree (%) Velvetleaf (velvetleaf [6]; active ingredient 1000 g/ha): 40%; Growth controlling degree (%) Rice (rice [7]; active ingredient 1000 g/ha): 30%; Growth controlling degree (%) wheat (wheat; active ingredient 1000 g/ha): 10%; Growth controlling degree (%) Corn (corn [8]; active ingredient 1000 g/ha): 80%; Growth controlling degree (%) Soybean (soybean [9]; active ingredient 1000 g/ha): 60%; Growth controlling degree (%) Japanese ribbon wapato (japanese ribbon wapato): 20%
CCCC(=O)N(C)C(c1cnccc1C(F)(F)F)C(C)C (stereo not shown) [I-189, N-methyl-N-[2-methyl-1-(4-trifluoromethylpyridin-3-yl)propyl]butanamide] | 90% | 98% | 90% | 80% | 85% | 70% | 80% | 70% | 90% | 80% | 100% | 100% | 100% | 100% | 90% | 90% | 100% | 100% | 98% | 95% | Growth controlling degree (%) Corn (corn [17]): 50%; Growth controlling degree (%) Soyabean (soybean [18]): 95%; Growth controlling degree (%) Japanese ribbon wapato (japanese ribbon wapato): 95%
C=CC(=O)N(C)C(c1cnccc1C(F)(F)F)C(C)C (stereo not shown) [I-190] | 80% | 80% | 80% | 70% | 70% | 60% | 70% | 70% | 70% | 60% | 100% | 100% | 100% | 80% | 90% | 50% | 98% | 100% | 98% | 95% | Growth controlling degree (%) Corn (corn [17]): 10%; Growth controlling degree (%) Soyabean (soybean [18]): 30%; Growth controlling degree (%) Japanese ribbon wapato (japanese ribbon wapato): 90%
